Measured values as given in patent US8933107B2, “Pesticide thiazolyloxy substituted phenylamidine derivatives” (Bayer Cropscience AG, priority 2005, dated 2015).

What was measured:
physchem = settings: reversed-phase HPLC column (C 18)
[1] = test system: Puccinia recondita f. Sp. tritici; assay: In vivo preventive test on Puccinia recondita f. Sp. tritici (wheat brown rust); settings: topical, 240 h, 1000 ppm of active ingredient, evaluated 10 days after inoculation, read-out: efficacy
Alternaria solani = assay: In vivo protective test on Alternaria solani (leaf spot of tomato); settings: 168 h, 500 ppm of active ingredient, evaluated 7 days after inoculation, read-out: efficacy
Podosphaera leucotricha = assay: In vivo protective test on Podosphaera leucotricha (apples); settings: topical, 240 h, 100 ppm of active ingredient, evaluated 10 days after inoculation, read-out: efficacy
[2] = test system: Erysiphe graminis f. sp. hordei; assay: In vivo preventive test on Erysiphe gramini (powdery mildew on barley); settings: Blumeria graminis, 168 h, 1000 ppm of active ingredient, evaluated 7 days after inoculation, read-out: efficacy
Sphaerotheca fuliginea = assay: In vivo protective test on Sphaerotheca fuliginea (cucumbers); settings: Podosphaera fuliginea, 168 h, 100 ppm of active ingredient, evaluated 7 days after inoculation, read-out: efficacy

SMILES	chromatographic logP (physchem)	pest or weed control at 1000 ppm [1] [%]	pest or weed control at 500 ppm (Alternaria solani) [%]	pest or weed control at 100 ppm (Podosphaera leucotricha) [%]	pest or weed control at 1000 ppm [2] [%]	pest or weed control at 100 ppm (Sphaerotheca fuliginea) [%]	chromatographic logP (physchem; pH 2.3)
Cc1cc(Oc2nc(Cl)ns2)c(C)cc1/N=C/N(C)C(C)C [Compound 2.6]	1.67						
CCN(C)/C=N/c1cc(C)c(Oc2ncc(C(C)(C)C)s2)cc1C [Compound 1.74]	2.18	≥ 70	≥ 70	≥ 70			
CCN(C)/C=N/c1cc(C)c(Oc2nc(Cl)c(Br)s2)cc1C [Compound 1.6]	2	≥ 70		≥ 70	≥ 70	≥ 70	
CCN(C)/C=N/c1cc(C)c(Oc2nc(Cl)c(C=O)s2)cc1C [Compound 1.62]	1.68						
CCN(C)/C=N/c1cc(C)c(Oc2nc(Cl)c(Cl)s2)cc1C [Compound 1.1, N′-{4-[(4,5-dichloro-1,3-thiazol-2-yl)oxy]-2,5-dimethylphenyl}-N-ethyl-N-methylimidoformamide]	2.12	≥ 70	≥ 70	≥ 70	≥ 70	≥ 70	2.04
CCN(C)/C=N/c1cc(C)c(Oc2nnc(C(F)(F)F)s2)cc1C [Compound 3.2]	1.78	≥ 70	≥ 70		≥ 70		
CCN(C)/C=N/c1cc(C)c(Oc2nc(Cl)c(C(C)(C)C)s2)cc1C [Compound 1.73]	2.87	≥ 70					
CCN(C)/C=N/c1cc(C)c(Oc2nc(C(C)(C)C)cs2)cc1C [Compound 1.75]	2.26	≥ 70		≥ 70			
CCN(C)/C=N/c1cc(C)c(Oc2nc(Cl)cs2)cc1C [Compound 1.18]	1.6	≥ 70		≥ 70	≥ 70	≥ 70	
CCN(C)/C=N/c1ccc(Oc2nc(C)c(C)s2)cc1C [Compound 1.33]	1.65						
CCN(C)/C=N/c1cc(C)c(O)cc1C [IX-a, N-ethyl-N′-(4-hydroxy-2,5-dimethylphenyl)-N-methylimidoformamide]							0.41
CCN(C)/C=N/c1ccc(Oc2nc(C(C)C)ns2)cc1C [Compound 2.2]	1.57	≥ 70			≥ 70		
Cc1cc(Oc2nnc(C(F)(F)F)s2)c(C)cc1/N=C/N(C)C(C)C [Compound 3.1]	1.84	≥ 70			≥ 70		
CCN(C)/C=N/c1ccc(Oc2nc(C(C)(C)C)ns2)cc1C [Compound 2.7]	2.04	≥ 70	≥ 70	≥ 70			
CCN(C)/C=N/c1cc(C)c(Oc2nc(C(F)(F)F)c(Cl)s2)cc1C [Compound 1.5]	2.15	≥ 70	≥ 70	≥ 70	≥ 70	≥ 70	
Cc1cc(Oc2nc(Cl)c(Cl)s2)c(C)cc1/N=C/N(C)C(C)C [Compound 1.3]	2.18	≥ 70	≥ 70	≥ 70	≥ 70	≥ 70	
CCN(C)/C=N/c1cc(C)c(Oc2nc(C(C)C)ns2)cc1C [Compound 2.3]	1.74	≥ 70	≥ 70	≥ 70	≥ 70	≥ 70	
CCN(C)/C=N/c1cc(C)c(Oc2nc(C(C)(C)C)c(Cl)s2)cc1C [Compound 1.4]	2.76	≥ 70	≥ 70	≥ 70	≥ 70	≥ 70	
Cc1cc(Oc2nc(C(C)(C)C)c(Cl)s2)c(C)cc1/N=C/N(C)C(C)C [Compound 1.64]	2.79		≥ 70				
CCN(C)/C=N/c1cc(C)c(Oc2nc(Cl)c(C)s2)cc1C [Compound 1.17]	1.8	≥ 70	≥ 70	≥ 70	≥ 70		
Cc1cc(Oc2nc(C(C)C)ns2)ccc1/N=C/N(C)C(C)C [Compound 2.1]	1.77						
CCN(C)C=Nc1cc(C)c(Oc2nc(C=NOC(C)(C)C)c(Cl)s2)cc1C [Compound 1.44, N′-[4-({4-[(tert-butoxyimino)methyl]-5-chloro-1,3-thiazol-2-yl}oxy)-2,5-dimethylphenyl]-N-ethyl-N-methylimidoformamide]	2.65						2.65
CCN(C)/C=N/c1cc(C)c(Oc2nc(C(C)(C)C)c(Br)s2)cc1C [Compound 1.71]	2.78	≥ 70	≥ 70	≥ 70			
Cc1cc(Oc2nc(C)c(C)s2)c(C)cc1/N=C/N(C)C(C)C [Compound 1.37]	1.98						
CCN(C)/C=N/c1ccc(Oc2nc(Cl)c(Cl)s2)cc1C [Compound 1.39]	1.99						

SMILES	chromatographic logP (physchem)	pest or weed control at 1000 ppm [1] [%]	pest or weed control at 500 ppm (Alternaria solani) [%]	pest or weed control at 100 ppm (Podosphaera leucotricha) [%]	pest or weed control at 1000 ppm [2] [%]	pest or weed control at 100 ppm (Sphaerotheca fuliginea) [%]	chromatographic logP (physchem; pH 2.3)
Cc1cc(Oc2nc(Cl)c(C)s2)c(C)cc1/N=C/N(C)C [Compound 1.31]	1.69						
CCN(C)/C=N/c1cc(C)c(Oc2nc(C#N)c(Cl)s2)cc1C [Compound 1.72]	1.74	≥ 70		≥ 70			
Cc1cc(Oc2nc(C(C)C)c(Cl)s2)c(C)cc1/N=C/N(C)C(C)C [Compound 1.9]	2.57	≥ 70	≥ 70	≥ 70	≥ 70	≥ 70	
Cc1cc(Oc2nc(-c3ccccc3)cs2)c(C)cc1/N=C/N(C)C(C)C [Compound 1.61]	2.25						
Cc1cc(Oc2nc(C(C)C)ns2)c(C)cc1/N=C/N(C)C(C)C [Compound 2.4]	1.89	≥ 70			≥ 70		
CCCc1sc(Oc2cc(C)c(/N=C/N(C)CC)cc2C)nc1C [Compound 1.36]	2.22						
CSc1nnc(Oc2cc(C)c(/N=C/N(C)C(C)C)cc2C)s1 [Compound 3.18]	1.82						
Cc1cc(Oc2nc(C)c(C)s2)ccc1/N=C/N(C)C(C)C [Compound 1.34]	1.66						
Cc1cc(Oc2nc(Cl)c(Cl)s2)c(C)cc1N [II-1, 4-[(4,5-dichloro-1,3-thiazol-2-yl)oxy]-2,5-dimethylaniline]							3.4
Cc1cc(Oc2nc(Cl)cs2)c(C)cc1/N=C/N(C)C(C)C [Compound 1.14]	1.7		≥ 70				
CCN(C)/C=N/c1cc(C)c(Oc2nc(C)c(C(C)=O)s2)cc1C [Compound 1.27]	1.5		≥ 70				
Cc1cc(Oc2nnc(C(C)C)s2)c(C)cc1/N=C/N(C)C(C)C [Compound 3.19]	1.69						
CCN(C)/C=N/c1cc(C)c(Oc2nc(C)c(C)s2)cc1C [Compound 1.38]	1.87						
CCN(C)/C=N/c1cc(C)c(Oc2nnc(SC)s2)cc1C [Compound 3.21]	1.69		≥ 70				
Cc1cc(Oc2nc(C)c(Cl)s2)c(C)cc1/N=C/N(C)C(C)C [Compound 1.13]	2.14	≥ 70	≥ 70		≥ 70		
CCN(C)/C=N/c1cc(C)c(Oc2nc(Cl)ns2)cc1C [Compound 2.5]	1.56						
Cc1cc(Oc2nc(C(F)(F)F)c(Cl)s2)c(C)cc1/N=C/N(C)C(C)C [Compound 1.10]	2.29	≥ 70		≥ 70	≥ 70	≥ 70	
CCN(C)/C=N/c1cc(C)c(Oc2nc(C(C)C)c(Cl)s2)cc1C [Compound 1.20]	2.52	≥ 70	≥ 70		≥ 70		
Cc1cc(Oc2nc(Cl)c(Cl)s2)ccc1/N=C/N(C)C(C)C [Compound 1.28]	2.09	≥ 70			≥ 70		
CCN(C)/C=N/c1cc(C)c(Oc2nnc(-c3ccccc3)s2)cc1C [Compound 3.3]	1.93						
CCN(C)/C=N/c1cc(C)c(Oc2nc(C=O)c(Cl)s2)cc1C [Compound 1.42, N′-{4-[(5-chloro-4-formyl-1,3-thiazol-2-yl)oxy]-2,5-dimethylphenyl}-N-ethyl-N-methylimidoformamide]	1.46						1.51
CCN(C)/C=N/c1cc(C)c(Oc2nnc(C(C)C)s2)cc1C [Compound 3.22]	1.61						
CCN(C)/C=N/c1cc(C)c(Oc2nc(-c3ccccc3)cs2)cc1C [Compound 1.60]	2.18						
Cc1cc(Oc2nnc(-c3ccccc3)s2)c(C)cc1/N=C/N(C)C(C)C [Compound 3.6]	2						
CCCc1sc(Oc2cc(C)c(/N=C/N(C)C(C)C)cc2C)nc1C [Compound 1.35]	2.29						
